Experimental data taken from ChEMBL document CHEMBL1149237, “Design and synthesis of benzofused heterocyclic RXR modulators” (Bioorg Med Chem Lett, 2004).

Columns and labels:
Cercopithecidae = assay: RAR agonist synergy calculated using 3 nM of TTNPB; format: functional
[1] = molecular target: T1, Retinoic acid receptor RXR-alpha (Homo sapiens, UniProt P19793); assay: Effective concentration for antagonistic activity against RXR-alpha expressed in CV-1 cells; format: functional, cell-based, Cercopithecidae
T1 sequence (P19793 whole entry): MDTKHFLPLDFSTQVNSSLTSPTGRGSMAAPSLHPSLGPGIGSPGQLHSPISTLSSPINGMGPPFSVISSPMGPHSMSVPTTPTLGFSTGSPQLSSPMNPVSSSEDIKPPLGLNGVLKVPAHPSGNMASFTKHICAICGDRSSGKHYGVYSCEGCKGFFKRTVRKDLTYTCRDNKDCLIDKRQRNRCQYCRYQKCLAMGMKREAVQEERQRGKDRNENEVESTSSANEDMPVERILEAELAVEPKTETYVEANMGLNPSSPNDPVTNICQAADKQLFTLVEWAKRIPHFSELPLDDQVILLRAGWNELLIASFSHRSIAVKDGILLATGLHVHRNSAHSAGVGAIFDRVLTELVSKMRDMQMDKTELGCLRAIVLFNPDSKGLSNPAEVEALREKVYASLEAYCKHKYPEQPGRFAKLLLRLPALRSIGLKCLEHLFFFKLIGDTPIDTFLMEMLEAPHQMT

[2] = molecular target: T2, Retinoic acid receptor RXR-alpha (Homo sapiens) (UniProt P19793); assay: Agonistic efficacy in CV-1 cells (LGD1069 was used as reference); format: functional, cell-based; conditions: Cercopithecidae
T2 sequence (whole entry): T1 sequence (P19793 whole entry)

[3] = molecular target: T2, Retinoic acid receptor RXR-alpha (Homo sapiens); assay: Antagonistic efficacy in CV-1 cells (LGD1069 was used as reference); format: functional, cell-based; conditions: Cercopithecidae
[4] = molecular target: T3, Retinoic acid receptor gamma (Homo sapiens, UniProt P13631); assay: Ability to displace [3H]ATRA from Retinoic acid receptor gamma in CV-1 cells; format: cell-based, Cercopithecidae
T3 sequence (P13631 whole entry): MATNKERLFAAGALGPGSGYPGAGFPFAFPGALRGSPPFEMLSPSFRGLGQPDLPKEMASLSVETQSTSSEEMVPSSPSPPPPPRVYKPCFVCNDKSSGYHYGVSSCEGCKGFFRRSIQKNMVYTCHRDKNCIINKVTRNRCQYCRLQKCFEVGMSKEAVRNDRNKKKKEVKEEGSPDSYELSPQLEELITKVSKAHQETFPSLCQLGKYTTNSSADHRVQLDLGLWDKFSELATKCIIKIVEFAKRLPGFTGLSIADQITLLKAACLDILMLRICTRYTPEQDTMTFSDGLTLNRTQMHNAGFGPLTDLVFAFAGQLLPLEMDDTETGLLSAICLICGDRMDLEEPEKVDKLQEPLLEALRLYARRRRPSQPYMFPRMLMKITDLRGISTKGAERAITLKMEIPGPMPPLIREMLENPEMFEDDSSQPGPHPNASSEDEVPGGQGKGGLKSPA

[5] = molecular target: T4, Peroxisome proliferator-activated receptor gamma (Homo sapiens) (UniProt P37231); assay: Ratio between effective concentrations (Agonist) in PPAR gamma; format: functional; conditions: Cercopithecidae
T4 sequence (whole entry): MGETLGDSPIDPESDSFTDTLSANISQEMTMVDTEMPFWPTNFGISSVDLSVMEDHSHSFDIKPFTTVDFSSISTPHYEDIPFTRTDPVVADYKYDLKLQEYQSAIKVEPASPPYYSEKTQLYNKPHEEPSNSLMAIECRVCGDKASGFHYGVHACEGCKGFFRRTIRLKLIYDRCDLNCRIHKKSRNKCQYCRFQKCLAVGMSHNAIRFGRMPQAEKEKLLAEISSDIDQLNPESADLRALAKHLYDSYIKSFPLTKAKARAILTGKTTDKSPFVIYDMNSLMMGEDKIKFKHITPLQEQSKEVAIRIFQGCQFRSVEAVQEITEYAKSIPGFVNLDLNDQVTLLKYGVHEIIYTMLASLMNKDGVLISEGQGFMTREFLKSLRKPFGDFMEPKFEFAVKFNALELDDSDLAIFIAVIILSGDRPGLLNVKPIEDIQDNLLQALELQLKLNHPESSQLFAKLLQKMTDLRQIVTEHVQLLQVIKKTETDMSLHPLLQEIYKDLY

[6] = molecular target: T4, Peroxisome proliferator-activated receptor gamma (Homo sapiens); assay: Ratio between agonistic efficacy in PPAR gamma; format: functional; conditions: Cercopithecidae
[7] = molecular target: T1, Retinoic acid receptor RXR-alpha; assay: Ability to displace [3H]9-cis-RA from Retinoid X receptor alpha in CV-1 cells; format: cell-based, Cercopithecidae
[8] = molecular target: T1, Retinoic acid receptor RXR-alpha; assay: Effective concentration required for agonistic activity in CV-1 cells expressing RXR-alpha; format: functional, cell-based, Cercopithecidae

SMILES	EC50 [1] [nM]	Efficacy [2] [%]	Efficacy [3] [%]	Ki [4] [µM]	Ratio [5]	Ratio [6]	Ki [7] [nM]	EC50 [8] [nM]	Synergy (Cercopithecidae)
CCCCOc1c(\C(C)=C/C=C/C(C)=C/C(=O)O)cc(C(C)C)cc1C(C)C	4	2	91	> 10	1890	12			1
CCOc1c(-c2cnc3ccc(/C(C)=C/C(=O)O)cn23)cc(C(C)C)cc1C(C)C		7.93	9	> 10	425	81.8	2080		1.5
CCCOc1c(-c2c[nH]c3ccc(/C(C)=C/C(=O)O)cc23)cc(C(C)(C)C)cc1C(C)(C)C	30.1	7	81	> 10	7	173	1.6		3.4
COc1c(-c2csc3ccc(/C(C)=C/C(=O)O)cc23)cc(C(C)C)cc1C(C)C		65.4	0	> 10	224	114	29.6	914	2.7
C/C(=C/C=C/C(C)=C/C(=O)O)c1cc(C(C)(C)C)cc(C(C)(C)C)c1OCCCF	6.4	4	84	> 10	3.1	60	2.7		1.4
CCOc1c(\C(C)=C/C=C/C(C)=C/C(=O)O)cc(C(C)C)cc1C(C)C		58	7	> 10	8	38			5
CCCCOc1c(-c2c[nH]c3ccc(/C(C)=C/C(=O)O)cc23)cc(C(C)(C)C)cc1C(C)(C)C	26.4	1	93	> 10	8.9	105	3.2		2.3
CCOc1c(-c2csc3cnc(/C(C)=C/C(=O)O)cc23)cc(C(C)C)cc1C(C)C		15.1	9		347	127		1440	2
C/C(=C\C(=O)O)c1ccc2[nH]cc(-c3cc(C(C)(C)C)cc(C(C)(C)C)c3OCC(F)F)c2c1	66.3	15	41	> 10	21.9	233	1.6	65	3

Second part, led by results:

EC50 [1] [nM]	Efficacy [2] [%]	Efficacy [3] [%]	Ki [4] [µM]	Ratio [5]	Ratio [6]	Ki [7] [nM]	EC50 [8] [nM]	SMILES	Synergy (Cercopithecidae)
4150	1.78	48	> 10	1480	123	395		C/C(=C\C(=O)O)c1ccc2scc(-c3cc(C(C)C)cc(C(C)C)c3OCCCF)c2c1	1.5
	36	24	> 10	306	65	648	1020	CCOc1c(-c2noc3ccc(/C(C)=C/C(=O)O)cc23)cc(C(C)C)cc1C(C)C	1.7
			> 10			69.2	235	CCOc1c(-c2n[nH]c3ccc(/C(C)=C/C(=O)O)cc23)cc(C(C)C)cc1C(C)C	
21.1	1.7	87	> 10	15	256	7.4		CCCCOc1c(-c2c[nH]c3ccc(/C(C)=C/C(=O)O)cc23)cc(C(C)C)cc1C(C)C	1.3
	37.4	0	> 10	384	112	131	1440	C/C(=C\C(=O)O)c1ccc2scc(-c3cc(C(C)C)cc(C(C)C)c3O)c2c1	3.5
3980	0.51	64		893	24.9			CCCCOc1c(-c2cccc3[nH]c(/C(C)=C/C(=O)O)cc23)cc(C(C)C)cc1C(C)C	1.1
	43	7		118	168			CCOc1c(-c2[nH]nc3ccc(/C(C)=C/C(=O)O)cc23)cc(C(C)C)cc1C(C)C	2.4
1530	2.52	86	> 10	612	49	740		CCCCOc1c(-c2cn(C)c3ccc(/C(C)=C/C(=O)O)cc23)cc(C(C)C)cc1C(C)C	2.5
